Results: patent US20140057895A1, “INDAZOLE- AND PYRROLOPYRIDINE-DERIVATIVE AND PHARMACEUTICAL USE THEREOF” (priority 2011, published 2014)
Where a name gives a salt, the structure may show the parent alone.

Experiments:
5-HT4 receptor = molecular target: T1, 5-HT4 receptor (Cavia porcellus, UniProt O70528); experiment: Test Example 1: Serotonin 4 (5-HT4) receptor binding assay, [3H]-GR113808, guinea pig striatum membranes (Table 96); conditions: Guinea pig 5-HT4 receptor binding assay, [3H]-GR113808, striatum membranes; mean value of each group
T1 construct: striatum was isolated which was cryopreserved at −80° C. until use; from tissue; host or cells: guinea pig (Slc-Hartley) striatum membranes
Protocol: The 5-HT4 receptor binding assay and preparations of receptor membrane preparations herein were carried out according to a method of Grossman et al. [see, British J. Pharmacol., (1993) 109, 618].
Slc-Hartley guinea pigs (body weight 300 g to 400 g) were decapitated to remove brain rapidly, and striatum was isolated which was cryopreserved at −80° C. until use. To the obtained tissues were added fifteen fold of Hepes buffer (50 mM, pH 7.4, 4° C.), and the mixture was homogenized by Teflon (trademark) homogenizer and centrifuged at 48,000×g (4° C.) for 15 minutes. To the resulting precipitate was added Hepes buffer (1 ml) to 30 mg by wet weight of tissues, and the mixture was suspended to give receptor membrane preparations.
To an assay tube were added 0.1 nM [^3H]-GR113808 {chemical name: [1-[2-(methylsulfonylamino)ethyl]-4-piperidinyl]methyl 1-methylindole-3-carboxylate}, receptor membrane preparations, and Hepes buffer (50 mM, pH 7.4, 4° C., 1 ml) containing test compounds or 30 μM serotonin; and the mixture was incubated at 37° C. for 30 minutes. On quenching the reaction, the mixture was rapidly filtered on whatman GF/B filter, which was presoaked in 0.1% polyethyleneimine for 1 hour, by using Brandel cell Harvester, and washed with ice-cooled 50 mM Tris-HCl (pH 7.7, 4 ml) three times. To the filter after filtration was added a liquid scintillator (Ecoscint), and then a radioactivity was determined by a liquid scintillation counter.
50% Inhibition concentrations (IC50) were determined from inhibition rates of test compounds to specific bindings which were obtained by subtracting nonspecific bindings from total binding amounts of [^3H]-GR113808.
(§1) In the following table, the compounds used in the test are shown in numbers which correspond to the Example numbers above where the preparations of the compounds are described.

human 5-HT4b receptor = molecular target: T2, human 5-HT4b receptor (Homo sapiens, UniProt Q13639); experiment: Test Example 2: Serotonin 4 (5-HT4) receptor agonist activity assay, cAMP HTRF in CHO cells (Table 97); format: cell-based; conditions: cAMP in CHO cells expressing human 5-HT4b receptor, mean value; for Emax: 0.25 h, intrinsic activity, maximal activity of 5-HT defined as 100%, read-out: IA (%); for EC50: concentration showing 50% of IA
T2 construct: expressed in transfected cells; host or cells: CHO cells (G418 selection)
Protocol: The cAMP measurement test used herein was carried out by using CISBIO HTRF (trademark) cAMP Hirange kit according to the manufacturer's instructions attached therewith.
CHO cells expressing human 5-HT4b receptor were incubated in Medium 1 [DMEM/1% NEAA, 1% penicillin/streptomycin (P/S), 0.2 mg/mL GENETICIN (G418), 10% FBS] at 37° C. under 5% CO2 condition. Then, the cells were put into Medium 2 (DMEM/10000 cut FBS, G-418, P/S, NEAA) for 1 to 2 hours, and collected by treating with trypsin containing EDTA. The collected cells were suspended in Assay Buffer 1 [100 mM Hanks/HEPES buffer (pH 7.4)], the suspended cells were mixed with the testing compound on 384-well plates, and the cells were incubated at 31° C. for 15 minutes. To the cells were added cAMP-cryptate solution and cAMP-d2 solution, and they were incubated at room temperature for 1 hour. Then, time-resolved fluorescence was measured by En Vision (excitation wavelength: 330 nm, fluorescence wavelength: 620/665 nm). An intrinsic activity of the compound [IA (%)] and a concentration showing 50% of IA [EC50 (nM)] were calculated from the obtained results. In particular, the intrinsic activity (IA) was calculated on the basis of the maximal activity of 5-HT (measured from 10^−11 M to 10^−7 M) defined as 100%.
as §1

T1 sequence (O70528 whole entry): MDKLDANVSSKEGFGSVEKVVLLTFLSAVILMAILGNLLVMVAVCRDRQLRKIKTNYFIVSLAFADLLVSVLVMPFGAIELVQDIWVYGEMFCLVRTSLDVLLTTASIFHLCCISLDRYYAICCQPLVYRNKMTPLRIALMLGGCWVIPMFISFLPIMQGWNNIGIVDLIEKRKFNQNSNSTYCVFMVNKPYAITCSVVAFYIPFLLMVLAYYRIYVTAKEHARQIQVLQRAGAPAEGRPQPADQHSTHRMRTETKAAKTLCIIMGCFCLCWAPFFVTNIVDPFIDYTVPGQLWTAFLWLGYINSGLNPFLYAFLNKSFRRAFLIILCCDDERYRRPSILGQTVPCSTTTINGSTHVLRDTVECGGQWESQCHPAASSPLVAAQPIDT
T2 sequence (Q13639 whole entry): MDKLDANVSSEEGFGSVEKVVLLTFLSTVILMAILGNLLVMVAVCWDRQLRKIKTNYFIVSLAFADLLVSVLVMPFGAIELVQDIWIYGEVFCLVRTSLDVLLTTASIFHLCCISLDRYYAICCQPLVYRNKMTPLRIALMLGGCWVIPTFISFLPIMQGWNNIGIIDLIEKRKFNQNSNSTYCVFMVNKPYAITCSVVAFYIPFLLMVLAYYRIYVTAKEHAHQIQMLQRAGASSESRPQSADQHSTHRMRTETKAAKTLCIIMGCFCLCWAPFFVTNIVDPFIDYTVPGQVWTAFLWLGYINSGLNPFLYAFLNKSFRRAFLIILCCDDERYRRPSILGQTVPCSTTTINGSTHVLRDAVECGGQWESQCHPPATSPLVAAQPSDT

Structure (SMILES)	IC50 (5-HT4 receptor) [nM]	Emax (human 5-HT4b receptor) [%]	EC50 (human 5-HT4b receptor) [nM]
CCc1nn(-c2noc(C3CCN(CC4CCOCC4)CC3)n2)c2cc(F)ccc12 [Example 134, 3-ethyl-6-fluoro-1-{5-[1-(tetrahydro-2H-pyran-4-ylmethyl)piperidin-4-yl]-1,2,4-oxadiazol-3-yl}-1H-indazole]	24.2	81	12.1
CCc1nn(-c2noc(C3CCN(CCCOC)CC3)n2)c2ccccc12 [Example 87, 3-ethyl-1-{5-[1-(3-methoxypropyl)piperidin-4-yl]-1,2,4-oxadiazol-3-yl}-1H-indazole trifluoroacetate]	21	80	9.4
CCC(C)N1CCC(c2nc(-n3nc(C4CCC4)c4ccccc43)no2)CC1 (stereo not drawn) [Example 114, 1-{5-[1-(butan-2-yl)piperidin-4-yl]-1,2,4-oxadiazol-3-yl}-3-cyclobutyl-1H-indazole trifluoroacetate]	26.2	68	53
CCc1nn(-c2noc(C3CCN(C4CCN(C(C)=O)CC4)CC3)n2)c2cc(F)ccc12 [Example 228, 1-{4-[3-(3-ethyl-6-fluoro-1H-indazol-1-yl)-1,2,4-oxadiazol-5-yl]-1,4′-bipiperidin-1′-yl}ethanone hydrochloride]	28.7	66	8.2
CC(C)CN1CCC(c2nc(-n3nc(C4CCC4)c4ccccc43)no2)CC1 [Example 115, 3-cyclobutyl-1-{5-[1-{2-methylpropyl)piperidin-4-yl]-1,2,4-oxadiazol-3-yl}-1H-indazole trifluoroacetate]	40.2	58	153
CCc1nn(-c2noc(C3CCN(CC4CCN(C(=O)OC)CC4)CC3)n2)c2cc(F)ccc12 [Example 171, methyl 4-({4-[3-(3-ethyl-6-fluoro-1H-indazol-1-yl)-1,2,4-oxadiazol-5-yl]piperidin-1-yl}methyl)piperidine-1-carboxylate]	31.9	51	30.8
COCCCN1CCC(c2nc(-n3nc(C(C)C)c4ccccc43)no2)CC1 [Example 85, 1-{5-[1-(3-methoxypropyl)piperidin-4-yl]-1,2,4-oxadiazol-3-yl}-3-(propan-2-yl)-1H-indazole]	31.1	125	8.3
CCc1nn(-c2noc(C3CCN(C(C)C)CC3)n2)c2cc(F)ccc12 [Example 143, 3-ethyl-6-fluoro-1-{5-[1-(propan-2-yl)piperidin-4-yl]-1,2,4-oxadiazol-3-yl}-1H-indazole]	< 20	81	6
CCCN1CCC(c2nc(-n3nc(C(C)C)c4ccccc43)no2)CC1 [Example 117, 3-(propan-2-yl)-1-[5-(1-propylpiperidin-4-yl)-1,2,4-oxadiazol-3-yl]-1H-indazole trifluoroacetate]	25.9	83	29.5
CCc1nn(-c2noc(C3CCN(CC(C)C)CC3)n2)c2ccccc12 [Example 103, 3-ethyl-1-(5-[1-(2-methylpropyl)piperidin-4-yl]-1,2,4-oxadiazol-3-yl}-1H-indazole]	< 20	59	11
CCc1nn(-c2noc(C3CCN(CCCOC)CC3)n2)c2c(F)cccc12 [Example 95, 3-ethyl-7-fluoro-1-{5-[1-(3-methoxypropyl)piperidin-4-yl]-1,2,4-oxadiazol-3-yl}-1H-indazole]	< 20	43	3.7
CCc1nn(-c2noc(C3CCN(C[C@@H]4CCCN4C(=O)OCCF)CC3)n2)c2c(F)cccc12 [Example 182, 2-fluoroethyl (2S)-2-({4-[3-(3-ethyl-7-fluoro-1H-indazol-1-yl)-1,2,4-oxadiazol-5-yl]piperidin-1-yl}methyl)pyrrolidine-1-carboxylate]	< 20	38	4
CCc1nn(-c2noc(C3CCN(CC4CC4)CC3)n2)c2ccccc12 [Example 112, 1-{5-[1-(cyclopropylmethyl)piperidin-4-yl]-1,2,4-oxadiazol-3-yl}-3-ethyl-1H-indazole trifluoroacetate]	26.4	73	24.9
COCCCN1CCC(c2nc(-n3nc(C4CC4)c4ccccc43)no2)CC1 [Example 88, 3-cyclopropyl-1-{5-[1-(3-methoxypropyl)piperidin-4-yl]-1,2,4-oxadiazol-3-yl}-1H-indazole trifluoroacetate]	33.5	37	16.4
CCc1nn(-c2noc(C3CCN(C4CCN(C(C)=O)CC4)CC3)n2)c2c(F)cccc12 [Example 229, 1-{4-[3-(3-ethyl-7-fluoro-1H-indazol-1-yl)-1,2,4-oxadiazol-5-yl]-1,4′-bipiperidin-1′-yl}ethanone hydrochloride]	< 20	55	2.9
CCc1nn(-c2noc(C3CCN(C4CCOC4)CC3)n2)c2cc(F)ccc12 (stereo not drawn) [Example 138, 3-ethyl-6-fluoro-1-{5-[1-(tetrahydrofuran-3-yl)piperidin-4-yl]-1,2,4-oxadiazol-3-yl}-1H-indazole]	< 20	67	22.4
CCc1nn(-c2noc(C3CCN(CCCO)CC3)n2)c2ccccc12 [Example 261, 3-{4-[3-(3-ethyl-1H-indazol-1-yl)-1,2,4-oxadiazol-5-yl]piperidin-1-yl}propan-1-ol]	< 20	84	6.2

Now from value to compound:

IC50 (5-HT4 receptor) [nM]	Emax (human 5-HT4b receptor) [%]	EC50 (human 5-HT4b receptor) [nM]	Structure (SMILES)
< 20	48	60.7	CCc1nn(-c2noc(C3CN(C4CCN(C(=O)OC)CC4)C3)n2)c2ccccc12 [Example 257, methyl 4-{3-[3-(3-ethyl-1H-indazol-1-yl)-1,2,4-oxadiazol-5-yl]azetidin-1-yl}piperidine-1-carboxylate]
< 20	77	9.3	CCc1nn(-c2noc(C3CCN(CCC4CCCO4)CC3)n2)c2cc(F)ccc12 (stereo not drawn) [Example 131, 3-ethyl-6-fluoro-1-(5-{1-[2-(tetrahydrofuran-2-yl)ethyl]piperidin-4-yl}-1,2,4-oxadiazol-3-yl)-1H-indazole]
< 20	92	6.5	CCc1nn(-c2noc(C3CCN(CCCOC)CC3)n2)c2cc(F)ccc12 [Example 92, 3-ethyl-6-fluoro-1-{5-[1-(3-methoxypropyl)piperidin-4-yl]-1,2,4-oxadiazol-3-yl}-1H-indazole]
< 20	26	8	CCC(C)N1CCC(c2nc(-n3nc(C4CC4)c4ccccc43)no2)CC1 (stereo not drawn) [Example 102, 1-{5-[1-(butan-2-yl)piperidin-4-yl]-1,2,4-oxadiazol-3-yl}-3-cyclopropyl-1H-indazole trifluoroacetate]
< 20	70	8.9	CCc1nn(-c2noc(C3CCN(C(C)CC)CC3)n2)c2ccccc12 (stereo not drawn) [Example 101, 1-{5-[1-(butan-2-yl)piperidin-4-yl]-1,2,4-oxadiazol-3-yl}-3-ethyl-1H-indazole trifluoroacetate]
< 20	49	31.4	CCc1nn(-c2noc(C3CCN(C[C@@H]4CCN(C(=O)OCCF)C4)CC3)n2)c2ccccc12 [Example 195, 2-fluoroethyl (3S)-3-({4-[3-(3-ethyl-1H-indazol-1-yl)-1,2,4-oxadiazol-5-yl]piperidin-1-yl}methyl)pyrrolidine-1-carboxylate]
< 20	29	14.7	CCc1nn(-c2noc(C3CCN(CC4CCCO4)CC3)n2)c2ccccc12 (stereo not drawn) [Example 132, 3-ethyl-1-{5-[1-(tetrahydrofuran-2-ylmethyl)piperidin-4-yl]-1,2,4-oxadiazol-3-yl}-1H-indazole]
